Assay results as given in patent EP0791056B1, “LIPID-CLEAVAGE ENZYME COMPLEX” (priority 1994, dated 1996).

Tested on: Phosphodiesterase aus Schlangengift
Test: Enzymatic cleavage of AZT-DMDOPE, detection of cleavage products by thin-layer chromatography
Assay type: biochemical
Conditions: 10 mg AZT-DMDOPE in 0,1 M Tris, 0,5 mg enzyme, 15 h + 6 h at 37 °C

SMILES: CCCCCCCCCCCCSCC(COP(=O)(O)OC[C@H]1O[C@@H](n2cc(C)c(=O)[nH]c2=O)C[C@@H]1N=[N+]=[N-])OCCCCCCCCCC (stereo partly shown) [AZT-DMDOPE, (3'-Desoxy-3'-azidothymidin)-5'-phosphorsäure-(3-dodecyl-mercapto-2-decyloxy)-propylester]
- Fluoreszenzauslöschung DC: negativ
